SMILES strings stand for the structures. A value given as a limit tells only on which side of the number the result lay.

GST tagged truncated human mutant G2019S LRRK2, sequence (Q5S007 970-2527 G2019S): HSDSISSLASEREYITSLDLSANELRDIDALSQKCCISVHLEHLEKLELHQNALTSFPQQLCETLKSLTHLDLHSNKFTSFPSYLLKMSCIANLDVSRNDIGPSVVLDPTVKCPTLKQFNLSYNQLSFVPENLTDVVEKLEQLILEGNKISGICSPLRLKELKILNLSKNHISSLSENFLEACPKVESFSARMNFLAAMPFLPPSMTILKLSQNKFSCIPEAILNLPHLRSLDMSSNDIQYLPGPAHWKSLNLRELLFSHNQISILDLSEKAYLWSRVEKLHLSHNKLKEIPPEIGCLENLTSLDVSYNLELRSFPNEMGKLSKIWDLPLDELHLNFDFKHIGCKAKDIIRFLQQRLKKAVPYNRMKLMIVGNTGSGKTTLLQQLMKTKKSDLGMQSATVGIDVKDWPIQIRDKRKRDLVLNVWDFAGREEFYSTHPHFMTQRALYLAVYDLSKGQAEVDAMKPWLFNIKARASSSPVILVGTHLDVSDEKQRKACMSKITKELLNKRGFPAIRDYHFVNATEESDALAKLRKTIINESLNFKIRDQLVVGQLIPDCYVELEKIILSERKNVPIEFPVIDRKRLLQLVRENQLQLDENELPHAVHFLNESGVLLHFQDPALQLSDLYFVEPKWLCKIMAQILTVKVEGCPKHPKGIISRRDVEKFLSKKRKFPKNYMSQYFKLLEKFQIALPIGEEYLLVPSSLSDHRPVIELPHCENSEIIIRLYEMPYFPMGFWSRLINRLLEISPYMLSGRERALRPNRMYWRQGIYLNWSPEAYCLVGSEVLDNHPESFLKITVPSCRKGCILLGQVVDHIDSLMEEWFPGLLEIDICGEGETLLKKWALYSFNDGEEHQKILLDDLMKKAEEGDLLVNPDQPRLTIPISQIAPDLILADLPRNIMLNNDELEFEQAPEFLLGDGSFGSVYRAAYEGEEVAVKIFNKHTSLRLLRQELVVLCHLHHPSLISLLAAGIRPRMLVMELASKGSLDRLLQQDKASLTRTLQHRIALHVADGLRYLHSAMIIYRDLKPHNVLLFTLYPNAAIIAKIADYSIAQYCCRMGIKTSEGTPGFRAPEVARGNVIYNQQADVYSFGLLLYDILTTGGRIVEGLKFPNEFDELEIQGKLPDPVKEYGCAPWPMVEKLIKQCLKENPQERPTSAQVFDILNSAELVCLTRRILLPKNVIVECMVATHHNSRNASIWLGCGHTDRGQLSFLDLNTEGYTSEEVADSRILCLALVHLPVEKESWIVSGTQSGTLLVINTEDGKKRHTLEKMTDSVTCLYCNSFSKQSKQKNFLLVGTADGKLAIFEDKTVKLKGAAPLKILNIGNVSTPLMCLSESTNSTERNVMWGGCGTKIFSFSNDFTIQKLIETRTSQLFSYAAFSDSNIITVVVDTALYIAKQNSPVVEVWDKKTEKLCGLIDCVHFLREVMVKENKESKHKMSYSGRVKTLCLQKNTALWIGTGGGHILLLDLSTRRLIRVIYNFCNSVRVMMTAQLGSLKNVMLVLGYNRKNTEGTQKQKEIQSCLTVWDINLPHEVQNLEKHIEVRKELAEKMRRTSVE

The first assay concerns the target GST tagged truncated human mutant G2019S LRRK2 (Homo sapiens (Human), UniProt Q5S007, G2019S). Put plainly: LRRK2 Km ATP LanthaScreen Assay. Conditions: G2019S LRRK2, 134 μM ATP (Km ATP), mean values. The assay is classed as biochemical. The gist of the method: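 Enzyme (GST-tagged, truncated) was preincubated with compound for 15 min at RT in 50 mM Tris pH 8.5, 10 mM MgCl2, 0.01% Brij-35, 1 mM EGTA, 2 mM DTT and 0.05 mM orthovanadate. Fluorescein-LRRKtide and 134 μM ATP (Km) were then added for 90 min. EDTA and Tb-anti-pERM antibody stopped the reaction; the TR-FRET 520/495 ratio gave 4-parameter IC50s, reported as mean pIC50.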
For orientation: In TR-FRET formats the signal depends on donor and acceptor labels being close together.
On to `Cn1ncc(Nc2ncc3cc(Cl)c([C@@H]4CCN([C@]5(C)COC[C@@H]5O)C[C@H]4F)cc3n2)c1C(F)(F)F` (single isomer, unassigned) [Ex-4.254, (3S,4S)(3S,4S) or (3S,4S)(3R,4R) or (3R,4R)(3S,4S) or (3R,4R)(3R,4R) 4-[4-(6-chloro-2-{[1-methyl-5-(trifluoromethyl)-1H-pyrazol-4-yl]amino}quinazolin-7-yl)-3-fluoropiperidin-1-yl]-4-methyloxolan-3-ol], for which the “LRRK2 pIC50” value is on record as greater than 9.20.

With `Cc1cc2cnc(Nc3cnn(C4CC4)c3Cl)nc2cc1C1CCN(C2COCC2O)CC1` (single isomer, unassigned) [Ex-2.4, (3S,4S) or (3R,4R)-(4-(4-(2-((5-chloro-1-cyclopropyl-1H-pyrazol-4-yl)amino)-6-methylquinazolin-7-yl)piperidin-1-yl)tetrahydrofuran-3-ol], the “LRRK2 pIC50” value was greater than 9.20.

Regarding `Cc1cc2cnc(Nc3cnn(C45CC(F)(C4)C5)c3Cl)nc2cc1[C@@H]1CCN([C@@H]2COC[C@@H]2O)C[C@H]1F` (single isomer, unassigned) [Ex-4.232, (3S,4S)(3S,4S) or (3S,4S)(3R,4R) or (3R,4R)(3S,4S) or (3R,4R)(3R,4R) 4-[4-(2-{[5-chloro-1-(3-fluorobicyclo[1.1.1]pentan-1-yl)-1H-pyrazol-4-yl]amino}-6-methylquinazolin-7-yl)-3-fluoropiperidin-1-yl]oxolan-3-ol], the “LRRK2 pIC50” value is greater than 9.20.

Turning to `Cc1cc2cnc(Nc3cnn(C4CC4)c3Cl)nc2cc1[C@@H]1CCN([C@@H]2COC[C@@H]2O)C[C@H]1F` (single isomer, unassigned) [Ex-4.150, (3S,4S)(3S,4S) or (3S,4S)(3R,4R) or (3R,4R)(3S,4S) or (3R,4R)(3R,4R) 4-(4-{2-[(5-chloro-1-cyclopropyl-1H-pyrazol-4-yl)amino]-6-methylquinazolin-7-yl}-3-fluoropiperidin-1-yl)oxolan-3-ol], the “LRRK2 pIC50” value is recorded as greater than 9.20.

For the molecule `FC(F)Cn1ncc(Nc2ncc3cc(Cl)c(C4CCN(C5COC5)CC4)cc3n2)c1Cl` [Ex-4.55, 6-chloro-N-[5-chloro-1-(2,2-difluoroethyl)-1H-pyrazol-4-yl]-7-[1-(oxetan-3-yl)piperidin-4-yl]quinazolin-2-amine], the “LRRK2 pIC50” value is given as greater than 9.20.

For the molecule `Cc1c(Nc2ncc3cc(Cl)c(C4CCN([C@@H]5COC[C@@H]5O)CC4)cc3n2)cnn1C(C)(C)C#N` (single isomer, unassigned) [Ex-2.74, (3S,4S) or (3R,4R) 2-[4-({6-chloro-7-[1-(4-hydroxyoxolan-3-yl)piperidin-4-yl]quinazolin-2-yl}amino)-5-methyl-1H-pyrazol-1-yl]-2-methylpropanenitrile], the “LRRK2 pIC50” value is greater than 9.20.

As for `Cc1c(Nc2ncc3cc(Cl)c(C4CCN(C[C@H](O)CN5CCCC5=O)CC4)cc3n2)cnn1C1CC1` [Ex-4.216, 1-[(2S)-3-(4-{6-chloro-2-[(1-cyclopropyl-5-methyl-1H-pyrazol-4-yl)amino]quinazolin-7-yl}piperidin-1-yl)-2-hydroxypropyl]pyrrolidin-2-one], the “LRRK2 pIC50” value turned out to be 9.05.

As to `COC(C)(C)Cn1ncc(Nc2ncc3cc(Cl)c(C4CCN(C5COC5)CC4)cc3n2)c1Cl` [Ex-2.10, 6-chloro-N-[5-chloro-1-(2-methoxy-2-methylpropyl)-1H-pyrazol-4-yl]-7-[1-(oxetan-3-yl)piperidin-4-yl]quinazolin-2-amine], the “LRRK2 pIC50” value is reported as greater than 9.20.

In the case of `O[C@@H]1COC[C@@H]1N1CC[C@H](c2cc3nc(Nc4cnn(C56CC(C5)C6)c4)ncc3cc2Cl)[C@@H](F)C1` (single isomer, unassigned) [Ex-4.155, (3S,4S)(3S,4S) or (3S,4S)(3R,4R) or (3R,4R)(3S,4S) or (3R,4R)(3R,4R) 4-[4-(2-{[1-(bicyclo[1.1.1]pentan-1-yl)-1H-pyrazol-4-yl]amino}-6-chloroquinazolin-7-yl)-3-fluoropiperidin-1-yl]oxolan-3-ol], the “LRRK2 pIC50” value is greater than 9.20.

Regarding `Cn1nc(C2CC2)cc1Nc1ncc2cc(Cl)c(C3CCN(C4COC4)CC3)cc2n1` [Ex-2.62, 6-chloro-N-(3-cyclopropyl-1-methyl-1H-pyrazol-5-yl)-7-[1-(oxetan-3-yl)piperidin-4-yl]quinazolin-2-amine], the “LRRK2 pIC50” value is given as 7.88.

`CC1(N2CCC(c3cc4nc(Nc5cnn(C6(C)CC6)c5Cl)ncc4cc3Cl)CC2)COC1` [Ex-8.15, 6-chloro-N-[5-chloro-1-(1-methylcyclopropyl)-1H-pyrazol-4-yl]-7-[1-(3-methyloxetan-3-yl)piperidin-4-yl]quinazolin-2-amine]: the “LRRK2 pIC50” value is greater than 9.20.

With `COCC12CC(n3ncc(Nc4ncc5cc(Cl)c(C6CCN(C7COC7)CC6)cc5n4)c3C)(C1)C2` [Ex-2.31, 6-chloro-N-{1-[3-(methoxymethyl)bicyclo[1.1.1]pentan-1-yl]-5-methyl-1H-pyrazol-4-yl}-7-[1-(oxetan-3-yl)piperidin-4-yl]quinazolin-2-amine], the “LRRK2 pIC50” value is on record as greater than 9.20.

For the molecule `Cn1nc(C(F)(F)F)cc1Nc1ncc2cc(Cl)c([C@@H]3CCN([C@@]4(C)COC[C@H]4O)C[C@H]3F)cc2n1` (single isomer, unassigned) [Ex-4.252, (3S,4S)(3S,4S) or (3S,4S)(3R,4R) or (3R,4R)(3S,4S) or (3R,4R)(3R,4R) 4-[4-(6-chloro-2-{[1-methyl-3-(trifluoromethyl)-1H-pyrazol-5-yl]amino}quinazolin-7-yl)-3-fluoropiperidin-1-yl]-4-methyloxolan-3-ol], the “LRRK2 pIC50” value is 6.61.

For the molecule `Cc1c(Nc2ncc3cc(Cl)c([C@@H]4CCN([C@H]5COC[C@H]5O)C[C@H]4F)cc3n2)cnn1C1CC1(F)F` (single isomer, unassigned) [Ex-4.180, (R)(3S,4S)(3S,4S) or (R)(3S,4S)(3R,4R) or (R)(3R,4R)(3S,4S) or (R)(3R,4R)(3R,4R) or (S)(3S,4S)(3S,4S) or (S)(3S,4S)(3R,4R) or (S)(3R,4R)(3S,4S) or (S)(3R,4R)(3R,4R) 4-(4-(6-chloro-2-((1-(2,2-difluorocyclopropyl)-5-methyl-1H-pyrazol-4-yl)amino)quinazolin-7-yl)-3-fluoropiperidin-1-yl)tetrahydrofuran-3-olyl]amino}quinazolin-7-yl)-3-fluoropiperidin-1-yl]oxolan-3-ol], the “LRRK2 pIC50” value is greater than 9.20.

For the molecule `CC(C)(O)Cn1ncc(Nc2ncc3cc(Cl)c(C4CCNCC4)cc3n2)c1Cl` [Ex-4.94, 1-(5-chloro-4-{[6-chloro-7-(piperidin-4-yl)quinazolin-2-yl]amino}-1H-pyrazol-1-yl)-2-methylpropan-2-ol], the “LRRK2 pIC50” value is recorded as 8.46.

Regarding `CCN1CC[C@@H](c2cc3nc(Nc4cnn(CC(C)(C)O)c4Cl)ncc3cc2Cl)[C@H](F)C1` (single isomer, unassigned) [Ex-4.4, (3S,4S) or (3R,4R) 1-(5-chloro-4-((6-chloro-7-(1-ethyl-3-fluoropiperidin-4-yl)quinazolin-2-yl)amino)-1H-pyrazol-1-yl)-2-methylpropan-2-ol], the “LRRK2 pIC50” value came out at 8.88.

As for `CC1(n2ncc(Nc3ncc4cc(Cl)c(C5CCN(CCC#N)CC5)cc4n3)c2Cl)CC1` [Ex-8.13, 3-[4-(6-chloro-2-{[5-chloro-1-(1-methylcyclopropyl)-1H-pyrazol-4-yl]amino}quinazolin-7-yl)piperidin-1-yl]propanenitrile], the “LRRK2 pIC50” value is on record as greater than 9.20.

Consider `O[C@@H]1COCC1N1CC[C@H](c2cc3nc(Nc4cnn(C5CC5(F)F)c4Cl)ncc3cc2Cl)[C@@H](F)C1` (single isomer, unassigned) [Ex-4.184, (R)(3S,4S)(3S,4S) or (R)(3S,4S)(3R,4R) or (R)(3R,4R)(3S,4S) or (R)(3R,4R)(3R,4R) or (S)(3S,4S)(3S,4S) or (S)(3S,4S)(3R,4R) or (S)(3R,4R)(3S,4S) or (S)(3R,4R)(3R,4R) 4-(6-chloro-2-{[5-chloro-1-(2,2-difluorocyclopropyl)-1H-pyrazol-4-yl]amino}quinazolin-7-yl)-3-fluoropiperidin-1-yl]oxolan-3-ol], for which the “LRRK2 pIC50” value is given as greater than 9.20.

The assay is the same for the next values; noted with them: G2019S LRRK2, 134 μM ATP (Km ATP), mean values; read-out: LRRK2 pIC50 (converted).
As for `Cc1c(Nc2ncc3cc(Cl)c(C4CCN(CC(O)c5ccc(Cl)cc5)CC4)cc3n2)cnn1C1CC1` (single isomer, unassigned) [Ex-4.225, (S) or (R) 2-(4-{6-chloro-2-[(1-cyclopropyl-5-methyl-1H-pyrazol-4-yl)amino]quinazolin-7-yl}piperidin-1-yl)-1-(4-chlorophenyl)ethan-1-ol], the IC50 was 21.4 nM.

`Clc1cc2cnc(Nc3cnn(C4CC4)c3Cl)nc2cc1C1CCN(C2COC3(CCC3)C2)CC1` (single isomer, unassigned) [Ex-4.115, (R) or (S) 7-(1-(5-oxaspiro[3.4]octan-7-yl)piperidin-4-yl)-6-chloro-N-(5-chloro-1-cyclopropyl-1H-pyrazol-4-yl)quinazolin-2-amine]: the IC50 was 0.851 nM.

For the molecule `CC1(N2CC3(CC(n4cc(Nc5ncc6cc(Cl)c(C7CC78CC8)cc6n5)cn4)C3)C2)COC1` (single isomer, unassigned) [Ex-2.8, (S) or (R) 6-chloro-N-{1-[2-(3-methyloxetan-3-yl)-2-azaspiro[3.3]heptan-6-yl]-1H-pyrazol-4-yl}-7-(spiro[2.2]pentan-1-yl)quinazolin-2-amine], the IC50 is 1.26 nM.

With `Cc1c(Nc2ncc3cc(Cl)c(C4CCN(CC(O)CC(F)(F)F)CC4)cc3n2)cnn1C1CC1` (single isomer, unassigned) [Ex-4.191, (S) or (R) 1-(4-{6-chloro-2-[(1-cyclopropyl-5-methyl-1H-pyrazol-4-yl)amino]quinazolin-7-yl}piperidin-1-yl)-4,4,4-trifluorobutan-2-ol], the IC50 is less than 0.631 nM.

On to `Clc1cc2cnc(Nc3cnn(C4CC4)c3Cl)nc2cc1C1CCN(C2CCOC2)CC1` (single isomer, unassigned) [Ex-4.48, (S) or (R) 6-chloro-N-(5-chloro-1-cyclopropyl-1H-pyrazol-4-yl)-7-[1-(oxolan-3-yl)piperidin-4-yl]quinazolin-2-amine], for which the IC50 was 0.891 nM.

The values are drawn from patent US12540131B2 (Merck Sharp & Dohme LLC, priority 2019, dated 2026).
